US5985910A, “3- [4- (2- Phenyl-Indole-1-ylmethyl) Phenyl]- Acrylamides as estrogenic agents” (priority 1997, dated 1999)

Experiments:
Ishikawa cells = test: Ishikawa Cell Alkaline Phosphatase Assay; format: cell-based, human; settings: for % Activation (Compound ± 1 nM 17β-estradiol) (alkaline phosphatase): 10^-6 M compound + 1 nM 17β-estradiol, 48 h (antiestrogen test); for % Activation (alkaline phosphatase): compound alone, 48 h, percent of response related to 1 nM 17β-estradiol
Method: Ishikawa Cell Alkaline Phosphatase Assay
(§1) Cell Maintenance and Treatment
Ishikawa cells were maintained in DMEM/F12 (50%:50%) containing phenol red+10% fetal bovine serum and the medium was supplemented with 2 mM Glutamax, 1% Pen/Strap and 1 mM sodium pyruvate. Five days prior to the beginning of each experiment (treatment of cells) the medium was changed to phenol red-free DMEM/F12+10% dextran coated charcoal stripped serum. On the day before treatment, cells were harvested using 0.5% trypsin/EDTA and plated at a density of 5×10^4 cells/well in 96-well tissue culture plates. […] Cells were treated for 48 h prior to assay. […] Sample population for at each dose was n=8.
Alkaline Phosphatase Assay
At the end of 48 h the media is aspirated and cells are washed three times with phosphate buffered saline (PBS). 50 μL of lysis buffer (0.1 M Tris-HCl, pH 9.8, 0.2% Triton X-100) is added to each well. Plates are placed at -80° C. for a minimum of 15 minutes. Plates are thawed at 37° C. followed by the addition of 150 μL of 0.1 M Tris-HCl, pH 9.8, containing 4 mM para-nitrophenylphosphate (pNPP) to each well (final concentration, 3 mM pNPP).
Absorbance and slope calculations were made using the KineticCalc Application program (Bio-Tek Instruments, Inc., Winooski, Vt.). Results are expressed as the mean +/-S.D. of the rate of enzyme reaction (slope) averaged over the linear portion of the kinetic reaction curve (optical density readings every 5 minutes for 30 minutes absorbance reading).
Various compounds were assayed for estrogenic activity by the alkaline phosphatase method and corresponding ED50 values (95% C.I.) were calculated. The four listed in the following were used as reference standards:
A description of such methods is provided by Holinka, C. F., Hata, H., Kuramoto, H. and Gurpide, E. (1986) Effects of steroid hormones and antisteroids on alkaline phosphatase activity in human endometrial cancer cells (Ishikawa Line). Cancer Research, 46:2771-2774, and by Littlefield, B. A., Gurpide, E., Markiewicz, L., McKinley, B. and by Hochberg, R. B. (1990) A simple and sensitive microtiter plate estrogen bioassay based on stimulation alkaline phosphatase in Ishikawa cells; Estrogen action of D5 adrenal steroids. Endocrinology, 6:2757-2762.

uteri = test: Rat Uterotrophic/Antiuterotrophic Bioassay (results headed 3-Day Ovariectomized Rat Model); format: in vivo, rat (Sprague-Dawley)
Method: Rat Uterotrophic/Antiuterotrophic Bioassay
Immature Sprague-Dawley rats (female, 18 days old) were tested in groups of six. […] On day 4 the animals were sacrificed by CO2 asphyxiation and their uteri were removed and stripped of excess lipid, any fluid removed and the wet weight determined. A small section of one horn was submitted for histology and the remainder used to isolate total RNA in order to evaluate complement component 3 gene expression.

estrogen receptor [1] = target: T1, estrogen receptor (Homo sapiens, UniProt P03372); test: In Vitro Estrogen Receptor Binding Assay ([3H]-17β-estradiol competition, cytosol of CHO cells overexpressing the estrogen receptor); parameters: made in house; host or cells: CHO cells overexpressing the receptor; 100,000 g cytosol
T1 sequence (P03372 1-595): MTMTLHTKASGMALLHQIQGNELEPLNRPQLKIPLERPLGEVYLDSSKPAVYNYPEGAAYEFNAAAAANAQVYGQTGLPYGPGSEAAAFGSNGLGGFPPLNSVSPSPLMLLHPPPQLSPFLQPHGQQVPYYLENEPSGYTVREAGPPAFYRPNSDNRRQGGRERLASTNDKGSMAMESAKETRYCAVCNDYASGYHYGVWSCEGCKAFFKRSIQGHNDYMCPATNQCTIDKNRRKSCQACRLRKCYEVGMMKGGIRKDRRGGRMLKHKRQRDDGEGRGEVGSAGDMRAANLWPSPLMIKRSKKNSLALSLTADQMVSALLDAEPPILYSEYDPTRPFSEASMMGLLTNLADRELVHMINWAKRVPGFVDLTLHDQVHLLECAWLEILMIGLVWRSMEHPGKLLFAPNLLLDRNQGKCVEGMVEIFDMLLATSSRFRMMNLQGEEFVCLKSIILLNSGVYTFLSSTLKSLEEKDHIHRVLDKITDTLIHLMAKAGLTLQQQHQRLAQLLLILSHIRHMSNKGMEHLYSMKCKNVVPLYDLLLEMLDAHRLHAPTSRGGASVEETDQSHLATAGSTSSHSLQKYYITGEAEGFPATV
Method: In Vitro Estrogen Receptor Bonding Assay
CHO cells overexpressing the estrogen receptor were grown in 150 mm^2 dishes in DMEM+10% dextran coated charcoal, stripped fetal bovine serum. The plates were washed twice with PBS and once with 10 mM Tris-HCl, pH 7.4, 1 mM EDTA. Cells were harvested by scraping the surface and then the cell suspension was placed on ice. Cells were disrupted with a hand-held motorized tissue grinder using two, 10-second bursts. […] The cytosol was then frozen and stored at -80° C. Protein concentration of the cytosol was estimated using the BCA assay with reference standard protein.
100 uG/100 uL of the receptor preparation was aliquoted per well. […] The plate was incubated at room temperature for 2.5 h. […] 200 uL of the supernatant solution was then removed for scintillation counting. Samples were counted to 2% or 10 minutes, whichever occurs first. […] Also, wells containing radioactivity but no cytosol were processed with charcoal to estimate unremovable DPM of [^3 H] […].
Counts per minute (CPM) of radioactivity were automatically converted to disintegrated per minute (DPM) by the Beckman LS 7500 Scintillation Counter using a set of quenched standards to generate a H# for each sample.
((DPM sample-DPM not removed by charcoal)/(DPM estradiol-DPM not removed by charcoal))×100%=% of estradiol binding
For the generation of IC50 curves, % binding is plotted vs compound. […] For a description of these methods, see Hulme, E. C., ed. […] Receptor-Ligand Interactions: A Practical Approach. IRL Press, New York (see especially chapter 8).

estrogen receptor [2] = target: T1, estrogen receptor; test: 2X VIT ERE Transfection (luciferase) Assay in CHO cells; format: cell-based; parameters: expressed in transfected cells; host or cells: Chinese Hamster Ovary (CHO) cells, stably transfected
Method: 2X VIT ERE Transfection Assay
as §1
Chinese Hamster Ovary cells (CHO) which had been stably transfected with the human estrogen receptor were maintained in DMEM+10% fetal bovine serum (FBS). 48 h prior to treatment the growth medium was replaced with DMEM lacking phenol red +10% dextran coated charcoal stripped FBS (treatment medium). Cells were plated at a density of 5000 cells/well in 96-well plates containing 200 μL of medium/well.
Calcium Phoshate Transfection
Reporter DNA (Promega plasmid pGL2 containing two tandem copies of the vitellogenin ERE in front of the minimal thymidine kinase promoter driving the luciferase gene) was combined with the B-galactosidase expression plasmid pCH110 (Pharmacia) and carrier DNA (pTZ18U) in the following ratio:
20 uL of this mixture was added to each well of cells and remained on the cells for 16 h. […] Each treatment condition was performed on 8 wells (n=8) which were incubated for 24 h prior to the luciferase assay.
After removing the PBS, 25 uL of Promega lysis buffer was added to each well and allowed to stand at room temperature for 15 min, followed by 15 min at -80° C. and 15 min at 37° C. 20 uL of lysate was transferred to an opaque 96 well plate for luciferase activity evaluation and the remaining lysate (5 uL) was used for the B-galactosidase activity evaluation (normalize transfection). The luciferan substrate (Promega) was added in 100 uL aliquots to each well automatically by the luminometer and the light produced (relative light units) was read 10 seconds after addition.
To the remaining 5 uL of lysate 45 uL of PBS was added. Then 50 uL of Promega B-galactosidase 2× assay buffer was added, mixed well and incubated at 37° C. for 1 hour. A plate containing a standard curve (0.1 to 1.5 milliunits in triplicate) was set up for each experimental run. The plates were analyzed on a Molecular Devices spectrophotometric plate reader at 410 nm. The optical densities for the unknown were converted to milliunits of activity by mathematical extrapolation from the standard curve.
The luciferase data was generated as relative light units (RLUs) accumulated during a 10 second measurement and automatically transferred to a JMP (SAS Inc) file where background RLUs were subtracted. The B-galactosidase values were automatically imported into the file and these values were divided into the RLUs to normalize the data. The mean and standard deviations were determined from a n=8 for each treatment. […] These techniques are described by Tzukerman, M. T., Esty, A., Santiso-Mere, D., Danielian, P., Parker, M. G., Stein, R. B., Pike, J. W. and McDonnel, D. P. (1994). Human estrogen receptor transactivational capacity was determined by both cellular and promoter context and mediated by two functionally distinct intramolecular regions (see Molecular Endocrinology, 8:21-30).

ovariectomized rat = settings: background, cited from earlier work
bone = settings: background; cited from earlier work
uterus = settings: background; cited from earlier work

| SMILES | % Activation (Compound ± 1 nM 17β-estradiol) (alkaline phosphatase) (Ishikawa cells) [%] | % Activation (alkaline phosphatase) (Ishikawa cells) [%] | uterine wet weight, 100 μG plus 1 μG 17β-Estradiol (uteri; 100 μG compound + 1 μG 17β-estradiol, estradiol alone: Example 11 group 90.8, Examples 14/15 group 95.5 mg) [mg] | Estrogen Receptor Affinity (RBA) (estrogen receptor [1]) | % Activation with 1 nM 17β-estradiol (luciferase) (estrogen receptor [2]; 1 uM compound + 1 nM 17β-estradiol, 24 h (antagonism)) [%] | activation at 1 µM (estrogen receptor [2]; CHO, 24 h) [%] | ability to spare bone (in words) (ovariectomized rat) | stimulation of uterine growth (in words) (ovariectomized rat; compared with Tamoxifen) | uterine wet weight, 10 μG (uteri; 10 μG compound, controls: tamoxifen/raloxifene 42.7, Example 7 20.2, Example 12 31.4, Example 11 24.5, Examples 14/15 29.1 mg) [mg] | uterine wet weight, 100 μG (uteri; 100 μG compound, controls: tamoxifen/raloxifene 42.7, Example 7 20.2, Example 12 31.4, Example 11 24.5, Examples 14/15 29.1 mg) [mg] | effect on the bone in humans (in words) (bone) | effect in the uterus (in words) (uterus) |
| --- | --- | --- | --- | --- | --- | --- | --- | --- | --- | --- | --- | --- |
| CCCCN(CCCC)C(=O)/C=C/c1ccc(Cn2c(-c3ccc(O)cc3)c(C)c3cc(O)ccc32)cc1 [Example 11, (E)-N,N-Dibutyl-3-{4-[5-hydroxy-2-(4-hydroxy-phenyl)-3-methyl-indol-1-ylmethyl]-phenyl}-acrylamide] | 11 | 6 | 81.0 | 80 | 12 | 8 | – | – | – | – | – | – |
| O=C(c1ccc(OCCN2CCCCC2)cc1)c1c(-c2ccc(O)cc2)sc2cc(O)ccc12 [raloxifene] | – | 5 | – | – | – | – | maintaining the ability to spare bone | stimulate uterine growth in the ovariectomized rat to a lesser extent than Tamoxifen | – | – | – | – |
| CC/C(=C(\c1ccccc1)c1ccc(OCCN(C)C)cc1)c1ccccc1 [tamoxifen] | 45 | 0 | – | – | – | – | – | – | 69.6 | 71.4 | estrogen agonist like effect on the bone | partial agonist in the uterus |
